Results on 10 compounds are retold here after ChEMBL document CHEMBL1128663, “Wiedendiol-A and -B, cholesteryl ester transfer protein inhibitors from the marine sponge Xestospongia wiedenmayeri” (Bioorg Med Chem Lett, 1995).

Test [1] addresses T1, Cholesteryl ester transfer protein (Homo sapiens, UniProt P11597).
T1 sequence (P11597 whole entry): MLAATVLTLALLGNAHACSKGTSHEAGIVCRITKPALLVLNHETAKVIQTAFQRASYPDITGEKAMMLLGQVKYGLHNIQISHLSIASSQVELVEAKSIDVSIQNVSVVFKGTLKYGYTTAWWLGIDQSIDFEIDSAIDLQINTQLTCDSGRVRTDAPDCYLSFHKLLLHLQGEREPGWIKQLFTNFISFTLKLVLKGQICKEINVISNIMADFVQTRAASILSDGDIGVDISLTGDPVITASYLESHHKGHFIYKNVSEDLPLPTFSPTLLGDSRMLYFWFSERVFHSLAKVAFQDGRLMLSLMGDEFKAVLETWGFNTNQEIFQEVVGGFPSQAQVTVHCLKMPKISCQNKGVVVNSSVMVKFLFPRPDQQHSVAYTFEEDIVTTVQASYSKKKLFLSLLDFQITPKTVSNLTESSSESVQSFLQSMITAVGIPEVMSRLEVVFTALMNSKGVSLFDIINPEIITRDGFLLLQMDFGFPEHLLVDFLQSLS
In words: Compound was tested for Cholesteryl ester transfer protein (CETP) inhibition by CETP-SPA assay.

For test [2], the target named is T1, Cholesteryl ester transfer protein. In words: Compound was tested for CETP inhibition by a precipitation method to separate lipoproteins after incubation of radiolabeled HDL with LDL and CETP.

`COc1ccc(O)c(O)c1/C=C1\[C@@H](C)CCC2C(C)(C)CCC[C@]12C` (some centres not stated): the IC50 is 5 µM in test [1] and 0.6 µM in test [2].
As to `C[C@]12CC(=O)[C@@H](O)[C@](C)(CO)[C@@H]1CC[C@@]1(C)c3cocc3CC[C@H]21` [SPONGIADIOL], the IC50 in test [1] was found to be 196 µM.
The same measure, in the same setting: the figure for `CC1=CCC[C@H]2[C@](C)(Cc3cc(O)ccc3O)[C@@H](C)CC[C@]12C` [AVAROL] is 25 µM; for `C[C@H]1CCC2C(C)(C)CCC[C@]23Oc2ccc(O)cc2C[C@]13C` (some centres not stated) it is 22 µM; for `COc1ccc(O)c2c1C[C@]1(C)[C@@H](C)CCC3C(C)(C)CCC[C@]31O2` (some centres not stated) it is 46 µM.
Still for that read-out and setting: the result for `C=C1CCC[C@H]2[C@](C)(CC3=C(O)C(=O)C=C(OC)C3=O)[C@@H](C)CC[C@]12C` [ILIMAQUINONE] reads 100 µM; that for `CC1(C)CCC[C@]2(C)[C@H]3C=C4C=C(O)C(=O)C=C4O[C@@]3(C)CC[C@@H]12` [PUUPEHENONE], 6 µM.
Take `COc1ccc(O)c(O)c1CC1=C(C)CCC2C(C)(C)CCC[C@]12C` (some centres not stated): the IC50 in test [1] turned out to be 5 µM; in test [2] it was 1 µM.
`CC1(C)CCC[C@]2(C)C3C=C4C(=CC(=O)C(O)=C4Cl)OC3CC[C@@]12C` (some centres not stated) [CHOLOROPUUPEHENONE]: in test [1], inhibition was half-maximal at 0.3 µM (IC50).
The same measure, in the same setting: the result for `CC1=CC[C@H]2C(C)(C)CCC[C@]2(C)[C@H]1C[C@H](OS(=O)(=O)[O-])[C@H](C)CCCc1ccoc1.C[N+](C)=C(N)N` [SULFIRICIN] reads above 190 µM.

The IC50 is the concentration that gives 50% inhibition.
